Results reported in patent US6498159B1, “Phthalazine derivatives and remedies for erectile dysfunction” (Eisai Co., Ltd., priority 1998, dated 2002).
pEC50, pIC50: −log10 of the molar value.

Experiments:
[1] = tested on: penile cavernosum preparation removed from a rabbit; test: Augmenting action of PDE5 inhibitor on the relaxation by nitroprusside of the penile cavernosum preparation removed from a rabbit; settings: for pEC50: Oryctolagus cuniculus, compound concentration at which the contraction caused by phenylephrine is relaxed by 50%, regression analysis on relaxation curve, duplicate; for Relaxation ratio (%): after nitroprusside (300 μM), phenylephrine contraction, mean of duplicate
Procedure: 2) Augmenting Action of the PDE5 Inhibitor on the Relaxing Action of Nitroprusside on a Penile Cavernosum Preparation Removed from a Rabbit
The penis was removed from a NZW white rabbit (about 3 kg) killed by intravenous administration of pentobarbital (50 mg/kg). After removal, the cavernosum was exposed by removal of surrounding tissues such as albuginea to give a preparation (about 10×1.5×1.5 mm). This preparation was suspended on a Magnus tube filled up with 10 ml Krebs-Henseleit's nutritive solution (118.4 mM NaCl, 4.7 mM KCl, 2.5 mM CaCl2, 1.3 mM MgSO4, 1.2 mM KH2PO4, 25.0 mM NaHCO3, 11.0 mM glucose, 0.026 mM EDTA and 0.001 mM indomethacin) at 37° C., and a gas mixture (95% oxygen+5% carbon dioxide) was bubbled thereinto. Then, the isometric tension was recorded under a load of 2 g. To stabilize the contraction, contraction caused by adding a potassium chloride solution (final concentration: 100 mM) and washing were repeated twice, and further, contraction by adding phenylephrine (final concentration: 10 μM) and washing were also conducted.
It was filled up again with 10 ml Krebs-Henseleit's solution, and L-N^G-nitroarginine methyl ester (final concentration: 100 μM) was added to inhibit the formation of endogenous nitrogen monoxide. Contraction was caused by adding phenylephrine (final concentration: 10 μM), and a chemical solution was added thereto at a final concentration of 3, 30 or 300 nM. Dimethyl sulfoxide was used as the medium in this reaction. 15 min after the chemical was added, nitroprusside (final concentration: 300 μM) was added to relax the preparation. Further, papaverine (final concentration: 100 μM) was added to determine the maximum relaxation.
After the experiment, the tension generated upon adding papaverine was used as the base line, and the relaxation of the preparation by adding nitroprusside was recorded on a chart by using a DEGIMATIC CALIPER to determine the degree of relaxation.
Values in the table indicate relaxation ratio (%) after nitroprusside was added to the preparation pretreated with the 3, 30 and 300 nM compound, and the mean in a duplicate experiment was recorded. Further, the EC50 value indicates the compound concentration at which the contraction caused by phenylephrine is relaxed by 50%, and this value was calculated by regression analysis on a relaxation curve in the duplicate experiment.

PDE5 = PDE5 (Sus scrofa, UniProt A0A287B475); test: Inhibitory action on the enzyme cGMP-PDE obtained from porcine platelets; format: biochemical; settings: 1 μM cGMP substrate, 1 mM EGTA, read-out: PDE 5 IC50
Procedure: 1) Inhibitory Action on the Enzyme cGMP-PDE Obtained from Porcine Platelets
The inhibitory activity of a test compound on the enzyme cGMP-PDE prepared from porcine platelets was determined by adding a solution of the test compound dissolved in DMSO to a reaction solution, where 1 μM cGMP was used as the substrate in the presence of 1 mM EGTA in accordance with a method of Tompson et al. The final concentration of DMSO in the reaction solution was 1% or less. Preparation of cGMP-PDE was conducted as follows. Porcine platelets were added to buffer A (20 mM Tris/HCl, 2 mM magnesium acetate, 10 mM 2-mercaptoethanol, 0.1 mM EGTA; pH 7.4), and then sonicated. The resulting suspension was centrifuged at 100,000×g for 60 min, and the resulting supernatant was subjected to a column (DEAE-Toyopearl 650S produced by Tosoh, Tokyo, Japan). After the column was washed with buffer A, the enzyme was eluted with a gradient of from 0.075 to 0.25 M NaCl in buffer A to give a CGMP-PDE fraction. The resulting fraction was dialyzed, concentrated and stored.

[2] = preparation pretreated with 3 nM compound
[3] = preparation pretreated with 30 nM compound
[4] = preparation pretreated with 300 nM compound

Structure (SMILES) | pEC50 [1] | Relaxation ratio (%) [1, 2] [%] | Relaxation ratio (%) [1, 3] [%] | Relaxation ratio (%) [1, 4] [%] | pIC50 (PDE5)
COc1ccc(CNc2nnc(N3CCC(OCCO)CC3)c3ccc(C#N)cc23)cc1Cl.Cl [Example 37, 4-[(3-Chloro-4-methoxybenzyl)amino]-1-[4-(2-hydroxyethoxy)piperidino]-6-phthalazinecarbonitrile Hydrochloride] | 7.53 | 33.4 | 50.1 | 56.0 | 
COc1ccc(CNc2nnc(N3CCC(O)CC3)c3ccc(C#N)cc23)cc1Br.Cl [Example 77, 4-[(3-Bromo-4-methoxybenzyl)amino]-1-(4-hydroxypiperidino)-6-phthalazinecarbonitrile Hydrochloride] | 9.15 | 58.8 | 71.7 | 80.6 | 9.64
COc1ccc(CNc2nnc(N3CCC(O)CC3)c3ccc(C#N)cc23)cc1C.Cl [Example 86, 1-(4-Hydroxypiperidino)-4-[(4-methoxy-3-methylbenzyl)amino]-6-phthalazinecarbonitrile Hydrochloride] | 8.52 | 50.2 | 70.2 | 71.5 | 
COc1ccc(CNc2nnc(N3CCC4(CC3)CC(O)C4)c3ccc(C#N)cc23)cc1Cl.Cl [Example 9, 4-[(3-Chloro-4-methoxybenzyl)amino]-1-(2-hydroxy-7-azaspiro[3.5]non-7-yl)-6-phthalazinecarbonitrile Hydrochloride] | 8.70 | 56.6 | 77.7 | 79.6 | 9.27
COc1ccc(CNc2nnc(N3CCC(C(F)CO)CC3)c3ccc(C#N)cc23)cc1Cl.Cl (stereo not drawn) [Example 36, 4-[(3-Chloro-4-methoxybenzyl)amino]-1-(4-[1-fluoro-2-hydroxyethyl)piperidino]-6-phthalazinecarbonitrile Hydrochloride] | 8.46 | 35.0 | 60.8 | 54.8 | 9.60
COc1ccc(CNc2nnc(N3CCC(F)(CO)CC3)c3ccc(C#N)cc23)cc1C.Cl [Example 88, 1-[4-Fluoro-4-(hydroxymethyl)piperidino]-4-[(4-methoxy-3-methylbenzyl)amino]-6-phthalazinecarbonitrile Hydrochloride] | 8.52 | 50.0 | 67.5 | 75.0 | 9.05
COc1ccc(CNc2nnc(N3CCC(F)(CO)CC3)c3ccc(C#N)cc23)cc1Br.Cl [Example 83, 4-[(3-Bromo-4-methoxybenzyl)amino]-1-[4-fluoro-4-(hydroxymethyl)piperidino]-6-phthalazinecarbonitrile Hydrochloride] | 8.55 | 50.6 | 67.3 | 69.9 | 9.30
